Patent US12306176B2, “Microfluidic bi-directional migration assay” (Ohio State Innovation Foundation, priority 2017, dated 2025)

Test system: MDA-MB-231 cells
Test: Modified transwell migration assay
Assay type: cell-based, human
Details: EGF 100 ng/mL in bottom chamber, 8 hours
Source text: In addition to the MBDM assay, the modified transwell migration assay (Ahirwar D K, et al. (2015) Sci Rep 5:11005.) was used to determine the effects of standalone iEF treatment on number of cells migrated to complement the speed and persistence data obtained from the MBDM assay. iEF treatment alone had no significant effect (neither stimulatory nor inhibitory) on the total number of MDA-MB-231 cells that spontaneously migrated across the transwell membrane (˜10 μm thick) compared to the untreated control (FIG. 8). These outcomes occurred for both anti-parallel and parallel directions of iEF application.
Transwell permeable supports that have 6.5 mm diameter inserts of polycarbonate membrane with 8 μm diameter pore size (Corning, CLS3422) were used in the experiments reported here. […] Cell migration numbers were then quantified using a custom MATLAB script as described in Image Acquisition and Processing. […]
Images from experiments with the transwell migration assays were taken using a stereo microscope (Leica Microsystems Inc.) after fixation and staining of the cells using the HEMA 3 solution kit (Fisher Scientific). […] The images were then imported into MATLAB and analyzed using a custom code (MATLAB script). […] The average area of a cell was determined from the mean of manual measurements of approximately 20 isolated cells for each case. […]

In the case of epidermal growth factor [EGF], the “transmigration compared to untreated controls” value is reported as “significantly promoted”.
